Source: publication PMC9532399, “The lysosomal transporter TAPL has a dual role as peptide translocator and phosphatidylserine floppase” (Nature Communications, 2022)
Residue numbers refer to the chain shown, from its start. No end group written: not given here.

T1: TAPL Y405A mutant (Mus musculus, UniProt Q9JJ59, Y405A)
T1 construct: thrombin cleavage site (C); eGFP (C); 10XHis (C); made in house; host or cells: Trichoplusia ni High Five (Hi5) insect cells, baculovirus (pVL1393)
T1 sequence (Q9JJ59 143-762 Y405A): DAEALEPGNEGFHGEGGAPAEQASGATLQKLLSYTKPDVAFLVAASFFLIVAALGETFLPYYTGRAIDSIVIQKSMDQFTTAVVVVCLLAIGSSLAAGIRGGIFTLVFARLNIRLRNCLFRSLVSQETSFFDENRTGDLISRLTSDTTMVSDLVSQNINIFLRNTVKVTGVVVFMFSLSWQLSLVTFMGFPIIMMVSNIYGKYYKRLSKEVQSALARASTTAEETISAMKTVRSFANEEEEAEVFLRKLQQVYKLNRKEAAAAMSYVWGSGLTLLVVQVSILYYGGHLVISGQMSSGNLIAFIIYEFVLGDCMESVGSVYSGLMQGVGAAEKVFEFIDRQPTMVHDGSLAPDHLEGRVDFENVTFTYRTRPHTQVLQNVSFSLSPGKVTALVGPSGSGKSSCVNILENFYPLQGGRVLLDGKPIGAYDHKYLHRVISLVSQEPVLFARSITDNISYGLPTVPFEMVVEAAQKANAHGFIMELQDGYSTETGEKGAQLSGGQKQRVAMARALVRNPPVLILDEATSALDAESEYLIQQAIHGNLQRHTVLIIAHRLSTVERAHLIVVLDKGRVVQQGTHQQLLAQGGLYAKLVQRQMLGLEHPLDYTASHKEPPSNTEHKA

T2: mouse TAPL ΔTMD0 (Mus musculus, UniProt Q9JJ59)
T2 construct: thrombin cleavage site (C); eGFP (C); 10XHis (C); made in house; host or cells: Trichoplusia ni High Five (Hi5) insect cells, baculovirus (pVL1393)
T2 sequence (Q9JJ59 143-762): T1 sequence (Q9JJ59 143-762 Y405A) with A263Y

T3: mouse TAPL ΔTMD0 Y405A mutant (mouse, UniProt Q9JJ59 143-762, Y405A)
T3 construct: mouse TAPL (ABCB9) lacking the N-terminal 142 residues (TMD0), with Y405A; source: High Five (Hi5) insect cells, baculovirus; DM-purified; not shown: eGFP, C-terminal, cleaved; His10, C-terminal, cleaved
T3 sequence (looked up): T1 sequence (Q9JJ59 143-762 Y405A)

B1: 9-mer peptide RRYQKSTEL (peptide)
peptide: RRYQKSTEL
notes: short synthetic peptide known to be transported by human TAPL; source: synthetic peptide (ANYGEN Co., Ltd.)
B2: mouse TAPL truncation mutant devoid of the N-terminal 142 residues (ΔTMD0) (domain or fragment, UniProt Q9JJ59 143-762, looked up)
chain: T1 sequence (Q9JJ59 143-762 Y405A) with A263Y
notes: mouse TAPL (ABCB9), protein of 762 amino acids, lacking the N-terminal 142 residues (TMD0); Homodimer by the cryo-EM structures; A thrombin site stood between TAPL and eGFP-10XHis; residues of the site may be left at the C-terminus after cleavage; also called ABCB9; TAP-like; source: High Five (Hi5) insect cells, baculovirus; purified (anti-GFP DARPin agarose, on-column thrombin cleavage, gel …)
B3: Cy5-labeled 9-mer peptide RRYQNSTC(Cy-5)L (peptide)
peptide: RRYQNSTC(Cy5)L
notes: synthetic 9-mer peptide with a single cysteine for labeling; also called Cy5-labeled peptide; source: synthetic peptide (ANYGEN Co., Ltd.), labeled with Cy5, desalted

What was measured:
TAPL Y405A mutant = target: T1, TAPL Y405A mutant; experiment: Lipid-stimulated ATPase assay, DM-purified Y405A mutant; format: biochemical; conditions: Y405A vs WT
Protocol: (§1) The ATPase activities of proteins obtained after various purification procedures were determined by NADH-coupled spectrophotometric assays. 10 μg of DM-purified or nanodisc-reconstituted protein was added to 140 μL of reaction buffer containing 50 mM HEPES–KOH pH 8.0, 60 μg/mL pyruvate kinase (Roche), 16 μg/mL lactate dehydrogenase (Roche), 10 mM phosphoenolpyruvate (Roche), 0.3 mM NADH, 3 mM ATP, 10 mM MgCl2, and 0.17% (w/v) DM in the presence or absence of 250 μM peptide. For proteins reconstituted into nanodiscs, DM was not added to the reaction buffer. For lipid-stimulated ATPase assays, the thin film of lipids was hydrated in 100 μL of buffer containing 50 mM HEPES–KOH pH 8.0 and 10 mM MgCl2 to yield a 10 mM solution. After sonication of the lipid solution for 10 min to decrease its turbidity, the reaction was initiated by adding varying concentrations of lipids to the mixture. ATP hydrolysis activity was monitored at 37 °C for 3 min by measuring the rate of decline of NADH absorbance at 340 nm. To inhibit ATP hydrolysis, the reaction mixture was incubated with 3 mM AMP-PNP or 8 mM NaF/2 mM BeSO4 for 5 min at RT. The kinetic parameters of ATP hydrolysis were calculated by fitting the initial rates of ATP hydrolysis to the Michaelis–Menten equation using PRISM 4.0 (GraphPad software).

mouse TAPL ΔTMD0 [1] = target: T2, mouse TAPL ΔTMD0; experiment: Lipid-stimulated ATPase assay, DM-purified ΔTMD0; format: biochemical
Protocol: as §1

mouse TAPL ΔTMD0 [2] = target: T2, mouse TAPL ΔTMD0; experiment: Dithionite-based flip-flop (floppase) assay of NBD*-labeled lipids, ΔTMD0 proteoliposomes; format: biochemical; conditions: 10% (mol/mol) unlabeled POPS, or presence of the 9-mer peptide
Protocol: All lipids used in reconstitution were purchased from Avanti Polar Lipids, Inc. (purity > 99%). The in vitro flip–flop assay was performed using NBD* dye-labeled proteoliposomes as described previously. Briefly, E. coli polar lipids and egg PC were mixed in a 1:1 molar ratio, and 0.5% (mol/mol) NBD*-lipid was added. The lipid mixture was then dried under nitrogen gas. The NBD*-lipids used were 18:1-06:0 NBD*-PS (1-oleoyl-2-{6-[(7-nitro-2-1,3-benzoxadiazol-4-yl)amino]hexanoyl}-sn-glycero-3-phosphoserine), 18:1-06:0 NBD*-PC (1-oleoyl-2-{6-[(7-nitro-2-1,3-benzoxadiazol-4-yl)amino]hexanoyl}-sn-glycero-3-phosphocholine), 18:1-06:0 NBD*-PG (1-oleoyl-2-{6-[(7-nitro-2-1,3-benzoxadiazol-4-yl)amino]hexanoyl}-sn-glycero-3-[phospho-rac-(1-glycerol)]), 18:1-06:0 NBD*-PE (1-oleoyl-2-{6-[(7-nitro-2-1,3-benzoxadiazol-4-yl)amino]hexanoyl}-sn-glycero-3-phosphoethanolamine), and 25-NBD*-Cholesterol (25-[N-[(7-nitro-2-1,3-benzoxadiazol-4-yl)methyl]amino]−27-norcholesterol). Thin lipid films were solubilized in 20 mM HEPES–NaOH pH 8.0, 200 mM NaCl and 5% (v/v) glycerol, incubated at RT for 30 min and subjected to 5 freeze–thaw cycles. After extrusion with a Mini-Extruder at 65 °C, final lipid concentrations were determined by phosphorus assays. Briefly, 10 μL of extruded lipid was added to 10 μL of 2% (w/v) ammonium molybdate and 300 μL of concentrated perchloric acid. The mixture was heated at 250 °C for 30 min, then cooled to RT and mixed with 1.5 mL of 0.4% (w/v) ammonium molybdate and 250 μL of 9% (w/v) L-ascorbic acid. It was again heated at 100 °C for 6 min and cooled to RT. Lipid concentrations were calculated from the absorbance at 820 nm using a standard curve prepared with NaH2PO4 solution. After accurately determining the lipid concentration, DM-purified protein and 5 mM lipid suspension (solubilized in 5 mM DM) were mixed 1:25 (w/w). After incubation at 4 °C for 1.5 h, DM detergent was removed with 75 mg Bio-beads SM-2 by periodic gentle shaking for 1 h at 4 °C (Supplementary Fig. 5a). The beads were replaced once, followed by an additional incubation at 4 °C for 2 h to completely remove detergent. The resulting proteoliposomes were collected by ultracentrifugation at 200,000×g for 1.5 h at 4 °C.
To measure the flip–flop activity, 10 μL of 2 mM NBD*-labeled proteoliposomes were added to 100 μL of reaction buffer (20 mM HEPES–NaOH pH 8.0, 200 mM NaCl, 5 mM ATP and 5% (v/v) glycerol) in the presence of 2 mM MgCl2 (or NaCl), and incubated at 37 °C for 1 h. The mixture was transferred to a 96-well plate and time-dependent fluorescence (λex/λem = 460/538 nm) was recorded every 30 s for 26 min using a fluorescence spectrophotometer (Gemini XPS). After the baseline fluorescence had stabilized, 10 mM sodium dithionite was added to quench the fluorescence of NBD*-lipid present in the outer leaflets of the liposomes. The initial rapid drop and subsequent slow decline in fluorescence intensity were monitored. When a new steady state was established, 1% (v/v) Triton X-100 was added to completely disrupt the liposomes. The net percentage of NBD*-lipid translocated across the lipid bilayer was calculated from the following equation[72]: the percentage of protected NBD*-lipid in the inner leaflet = [(FD−F0)/(FT−F0)]×100, and that of accessible NBD*-lipid in the outer leaflet = [(FT−FD)/(FT−F0)]×100, where FT is the total fluorescence of the sample before the addition of dithionite, FD is the fluorescence of the sample after quenching with dithionite, and F0 is any residual fluorescence of the sample after solubilization with Triton X-100. Fluorescence values (FT, FD, F0) were calculated as the averages of 5 points on the respective plateau lines. The ΔTMD0-mediated lipid floppase activity was determined by subtracting the percentage of NBD*-lipid fluorescence measured in the presence of Na^+/ATP from that measured in the presence of Mg^2+/ATP.

[3] = target: B2; experiment: cryo-EM structure; DM/CHS-purified ΔTMD0 with 1 mM 9-mer peptide, on ice for 30 min; inward-facing, 4.0 Å; conditions: both partners purified
[4] = target: the molecule itself; experiment: cryo-EM structure; ΔTMD0 in nanodiscs of E. coli polar lipids, no peptides or nucleotides; inward-facing, 3.4 Å
[5] = target: T3, mouse TAPL ΔTMD0 Y405A mutant; experiment: MST; 0.2 μM Cy5-labeled peptide with serial 2-fold dilutions of DM-purified protein, 10 min at RT; Monolith NT.115 pico; conditions: both partners purified
[6] = target: B2; experiment: as above; conditions: both partners purified
[7] = lipid stimulation, 3 mM ATP, means ± SEM

CC(C)CCC[C@@H](C)[C@H]1CC[C@H]2[C@@H]3CC=C4C[C@@H](OC(=O)CCC(=O)O)CC[C@]4(C)[C@H]3CC[C@]12C [CHS, cholesteryl hemisuccinate]
response of Y405A ATPase to lipid (TAPL Y405A mutant): significantly reduced basal and lipid-stimulated ATPase activity | Vmax relative to POPG-stimulated ATPase activity (mouse TAPL ΔTMD0 [1]; CHS vs POPG): ~ 51% | maximal ATPase activity (turnover) (mouse TAPL ΔTMD0 [1]; lipid stimulation, 3 mM ATP): 80 min⁻¹ | Km (mouse TAPL ΔTMD0 [1]; [7]): 127 ± 28 µM | maximal ATPase activity (Vmax) (mouse TAPL ΔTMD0 [1]; [7]): 589 ± 18 nmol/mg/min

CCCCCCCC/C=C\CCCCCCCC(=O)O[C@H](COC(=O)CCCCCCCCCCCCCCC)COP(=O)(O)OC[C@H](N)C(=O)O [POPS, 1-palmitoyl-2-oleoyl-sn-glycero-3-phospho-l-serine]
effect on translocation of NBD*-PS (mouse TAPL ΔTMD0 [2]): significantly inhibited | response of Y405A ATPase to lipid (TAPL Y405A mutant): significantly reduced basal and lipid-stimulated ATPase activity | maximal ATPase activity (turnover) (mouse TAPL ΔTMD0 [1]; lipid stimulation, 3 mM ATP): 109 min⁻¹ | maximal ATPase activity (Vmax) (mouse TAPL ΔTMD0 [1]; [7]): 808 ± 44 nmol/mg/min

B1
binding result [3]: binds

B2
stoichiometry N [4]: 2

B3
Kd [5]: 3800 nM | Kd [6]: 51.9 nM
